The record followed here is ChEMBL document CHEMBL5665443, “Enzyme Inhibitor Single Concentration assay results for EUbOPEN Chemogenomics Library” (2024).

Test [1] has as its target T1, Endonuclease 8-like 2 (Homo sapiens) (UniProt Q969S2).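 Note: fluorescence at 594 nm reports NEIL2 cutting and release of a quenched double-stranded DNA oligo substrate, reduced signal read as inhibition.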
T1 sequence (whole entry): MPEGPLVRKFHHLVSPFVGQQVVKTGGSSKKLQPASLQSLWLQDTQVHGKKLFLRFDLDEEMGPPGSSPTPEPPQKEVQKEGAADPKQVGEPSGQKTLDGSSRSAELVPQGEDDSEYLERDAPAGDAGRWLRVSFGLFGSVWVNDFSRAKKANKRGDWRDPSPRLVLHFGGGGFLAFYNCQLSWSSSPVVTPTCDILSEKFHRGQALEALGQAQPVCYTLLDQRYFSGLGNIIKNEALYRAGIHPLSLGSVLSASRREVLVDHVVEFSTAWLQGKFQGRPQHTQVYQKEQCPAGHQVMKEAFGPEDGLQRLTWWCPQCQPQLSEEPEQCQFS
The settings on record: Compound Concentration 10.0 uM, Hit No.
Description: Inhibition of NEIL2 by quantifying inhibition of NEIL2-mediated cleavage and dissociation of quenched duplex DNA oligonucleotides, measured as fluorescence at 594 nm.

In test [2] the target is G/T mismatch-specific thymine DNA glycosylase (Homo sapiens) (UniProt Q13569). The settings on record: Compound Concentration 10.0 uM, Hit No.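 Note: human TDG cleavage of quenched duplex DNA oligonucleotides coupled to APE1, strand release read as fluorescence at 594 nm, inhibition of TDG activity.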
G/T mismatch-specific thymine DNA glycosylase (Homo sapiens), sequence (Q13569 whole entry): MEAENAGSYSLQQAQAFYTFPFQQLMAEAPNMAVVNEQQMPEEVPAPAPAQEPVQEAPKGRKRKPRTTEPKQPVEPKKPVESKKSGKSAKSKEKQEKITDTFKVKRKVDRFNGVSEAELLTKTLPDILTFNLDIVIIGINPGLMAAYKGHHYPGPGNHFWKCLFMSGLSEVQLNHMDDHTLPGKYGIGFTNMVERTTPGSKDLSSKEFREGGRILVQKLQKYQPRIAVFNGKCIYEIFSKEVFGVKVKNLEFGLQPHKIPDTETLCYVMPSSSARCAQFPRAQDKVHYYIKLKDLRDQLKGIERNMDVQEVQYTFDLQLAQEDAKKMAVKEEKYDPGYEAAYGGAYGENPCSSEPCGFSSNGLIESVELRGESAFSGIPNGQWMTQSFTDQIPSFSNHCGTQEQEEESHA
Description: Inhibition of TDG by quantifying inhibition of TDG-mediated cleavage and dissociation of quenched duplex DNA oligonucleotides, measured as fluorescence at 594 nm. To generate a functional strand incision and increase turn-over this assay is coupled to APE1.
In test [3] the target is DNA-3-methyladenine glycosylase (Homo sapiens) (UniProt P29372). The settings on record: Compound Concentration 10.0 uM, Hit No.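 Note: enzyme assay where MPG cuts a quenched duplex DNA oligonucleotide probe, paired with APE1 for strand incision and turnover, read as fluorescence at 594 nm.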
DNA-3-methyladenine glycosylase (Homo sapiens), sequence (P29372 whole entry): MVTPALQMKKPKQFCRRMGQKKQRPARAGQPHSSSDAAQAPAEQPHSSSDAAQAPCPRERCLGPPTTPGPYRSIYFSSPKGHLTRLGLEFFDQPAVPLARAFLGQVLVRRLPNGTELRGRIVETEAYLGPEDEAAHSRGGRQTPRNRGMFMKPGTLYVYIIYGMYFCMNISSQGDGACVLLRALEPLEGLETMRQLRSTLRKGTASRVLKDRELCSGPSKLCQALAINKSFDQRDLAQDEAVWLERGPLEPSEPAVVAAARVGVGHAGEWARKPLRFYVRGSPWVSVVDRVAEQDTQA
Description: Inhibition of MPG by quantifying inhibition of MPG-mediated cleavage and dissociation of quenched duplex DNA oligonucleotides, measured as fluorescence at 594 nm. To generate a functional strand incision and increase turn-over this assay is coupled to APE1.
Test [4] concerns the target Uracil-DNA glycosylase (Homo sapiens) (UniProt P13051). The settings on record: Compound Concentration 10.0 uM, Hit No.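 Note: UNG excision on a quenched double-stranded DNA oligo probe, with APE1 added for strand incision and turnover, read as fluorescence at 594 nm as strands separate.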
Description: Inhibition of UNG by quantifying inhibition of UNG-mediated cleavage and dissociation of quenched duplex DNA oligonucleotides, measured as fluorescence at 594 nm. To generate a functional strand incision and increase turn-over this assay is coupled to APE1.
The target of test [5] is N-glycosylase/DNA lyase (Homo sapiens) (UniProt O15527). The settings on record: Compound Concentration 10.0 uM, Hit No.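 Note: OGG1 cleavage of a quenched duplex DNA oligonucleotide, coupled to APE1 for strand incision, read as fluorescence at 594 nm.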
N-glycosylase/DNA lyase (Homo sapiens), sequence (O15527 whole entry): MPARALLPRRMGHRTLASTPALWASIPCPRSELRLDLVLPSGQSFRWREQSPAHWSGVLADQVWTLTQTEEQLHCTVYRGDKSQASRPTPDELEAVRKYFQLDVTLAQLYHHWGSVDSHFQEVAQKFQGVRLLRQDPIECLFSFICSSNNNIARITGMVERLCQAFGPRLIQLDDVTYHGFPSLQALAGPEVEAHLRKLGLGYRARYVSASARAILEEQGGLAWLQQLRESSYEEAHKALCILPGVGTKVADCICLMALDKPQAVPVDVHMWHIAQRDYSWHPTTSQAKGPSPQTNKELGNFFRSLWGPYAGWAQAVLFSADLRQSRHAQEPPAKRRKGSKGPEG
Description: Inhibition of OGG1 by quantifying inhibition of OGG1-mediated cleavage and dissociation of quenched duplex DNA oligonucleotides, measured as fluorescence at 594 nm. To generate a functional strand incision and increase turn-over this assay is coupled to APE1.
The target of test [6] is T2, Single-strand selective monofunctional uracil DNA glycosylase (Homo sapiens) (UniProt Q53HV7).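 Note: enzymatic SMUG1 assay coupled with APE1, reading fluorescence at 594 nm released when a quenched double-stranded DNA oligonucleotide substrate is cleaved and separated.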
T2 sequence (whole entry): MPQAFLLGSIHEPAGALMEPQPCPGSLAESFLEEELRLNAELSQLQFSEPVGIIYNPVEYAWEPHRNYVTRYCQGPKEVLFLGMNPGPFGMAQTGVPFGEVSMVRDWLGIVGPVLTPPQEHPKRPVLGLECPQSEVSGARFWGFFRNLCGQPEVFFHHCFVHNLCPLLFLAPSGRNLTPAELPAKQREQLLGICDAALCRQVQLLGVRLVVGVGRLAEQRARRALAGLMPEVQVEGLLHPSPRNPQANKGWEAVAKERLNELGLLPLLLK
The settings on record: Compound Concentration 10.0 uM, Hit No.
Description: Inhibition of SMUG1 by quantifying inhibition of SMUG1-mediated cleavage and dissociation of quenched duplex DNA oligonucleotides, measured as fluorescence at 594 nm. To generate a functional strand incision and increase turn-over this assay is coupled to APE1.

Test [7] addresses Methyl-CpG-binding domain protein 4 (Homo sapiens) (UniProt O95243). To be noted: Compound Concentration 10.0 uM.
Description: Inhibition of MBD4 by quantifying inhibition of MBD4-mediated cleavage and dissociation of quenched duplex DNA oligonucleotides, measured as fluorescence at 594 nm. To generate a functional strand incision and increase turn-over this assay is coupled to APE1.
For test [8], the target named is Endonuclease 8-like 1 (Homo sapiens) (UniProt Q96FI4). To be noted: Compound Concentration 10.0 uM, Hit No.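 Note: fluorescence at 594 nm from quenched duplex DNA oligonucleotides released by NEIL1 cleavage and strand separation, reported as reduction of this enzyme activity.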
Endonuclease 8-like 1 (Homo sapiens), sequence (Q96FI4 whole entry): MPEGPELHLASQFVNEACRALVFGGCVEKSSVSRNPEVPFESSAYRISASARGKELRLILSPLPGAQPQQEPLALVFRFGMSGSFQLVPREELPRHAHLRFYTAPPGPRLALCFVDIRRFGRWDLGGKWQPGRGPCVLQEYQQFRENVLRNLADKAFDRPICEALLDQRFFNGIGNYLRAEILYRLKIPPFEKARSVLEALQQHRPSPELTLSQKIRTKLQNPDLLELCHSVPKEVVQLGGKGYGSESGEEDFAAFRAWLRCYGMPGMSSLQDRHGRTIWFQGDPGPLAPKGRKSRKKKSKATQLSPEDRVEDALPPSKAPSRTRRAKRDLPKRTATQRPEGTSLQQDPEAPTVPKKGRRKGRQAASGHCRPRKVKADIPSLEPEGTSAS
Description: Inhibition of NEIL1 by quantifying inhibition of NEIL1-mediated cleavage and dissociation of quenched duplex DNA oligonucleotides, measured as fluorescence at 594 nm.

What is called inhibition is the relative decrease from the control value, in per cent.

Uracil-DNA glycosylase (Homo sapiens), sequence (P13051 whole entry): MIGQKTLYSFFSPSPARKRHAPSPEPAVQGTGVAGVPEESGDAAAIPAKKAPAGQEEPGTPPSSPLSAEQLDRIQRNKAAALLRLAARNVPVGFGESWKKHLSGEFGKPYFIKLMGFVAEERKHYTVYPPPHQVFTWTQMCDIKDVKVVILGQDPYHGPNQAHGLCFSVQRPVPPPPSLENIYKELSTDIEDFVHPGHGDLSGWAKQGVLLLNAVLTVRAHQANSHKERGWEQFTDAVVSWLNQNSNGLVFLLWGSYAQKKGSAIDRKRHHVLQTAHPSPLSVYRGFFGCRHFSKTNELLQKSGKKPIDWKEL
Methyl-CpG-binding domain protein 4 (Homo sapiens), sequence (O95243 whole entry, the tested form may be a part): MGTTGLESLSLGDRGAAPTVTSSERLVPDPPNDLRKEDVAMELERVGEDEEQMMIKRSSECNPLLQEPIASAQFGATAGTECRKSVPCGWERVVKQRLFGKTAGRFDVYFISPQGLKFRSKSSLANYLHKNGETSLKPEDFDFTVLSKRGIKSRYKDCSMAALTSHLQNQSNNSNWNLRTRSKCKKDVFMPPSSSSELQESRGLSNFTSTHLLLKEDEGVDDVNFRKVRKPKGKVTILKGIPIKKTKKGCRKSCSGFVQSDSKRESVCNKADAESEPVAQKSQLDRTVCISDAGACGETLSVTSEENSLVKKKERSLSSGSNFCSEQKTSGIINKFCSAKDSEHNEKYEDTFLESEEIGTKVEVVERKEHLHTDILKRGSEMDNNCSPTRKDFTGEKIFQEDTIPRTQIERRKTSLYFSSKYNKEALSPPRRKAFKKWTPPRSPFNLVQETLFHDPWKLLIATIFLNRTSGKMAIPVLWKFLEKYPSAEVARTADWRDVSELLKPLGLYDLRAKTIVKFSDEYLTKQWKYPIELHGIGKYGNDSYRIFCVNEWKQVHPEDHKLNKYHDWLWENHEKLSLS

Turning to `COC(=O)C1=C(C)NC(C)=C(C(=O)OCCCN2CCC(c3ccccc3)(c3ccccc3)CC2)[C@H]1c1cccc([N+](=O)[O-])c1`, the inhibition in test [1] was 13.7%; in test [2], 35.3%; in test [3], -9.35%; in test [4], -9.34%; in test [5], -5.2%; in test [6], 9.7%. The inhibition in test [7] (Hit No) is -5.72%.

For `CCC(=O)NCC[C@@H]1CCc2ccc3c(c21)CCO3`, the inhibition is 6% in test [1]; 9.54% in test [2]; 4.81% in test [3]; -9.69% in test [4]; 6.47% in test [5]; -9.19% in test [6]. Further, the inhibition in test [7] (Hit No) is -9.72%; in test [8] it was 10.6%.

As for `CC(C)(O)CCn1c(=O)n(C(=O)N[C@H](C(N)=O)C(C)(C)C)c2ccccc21`, the inhibition in test [1] is 1.76%; in test [2], 10.8%; in test [3], -4.33%; in test [4] it was -9.98%; in test [5], -0.203%; in test [6], -3.57%. For the same compound, the inhibition in test [8] was found to be 2.61%.

Turning to `Nc1nc(-c2ccco2)c2cnn(Cc3ccccc3F)c2n1`, the inhibition was -4.93% in test [2]; -1.21% in test [3]; -7.72% in test [4]; -3.33% in test [7] (Hit No); -2.72% in test [8].

As for `Cc1ccc(OCC(O)C(C)NC(C)C)c2c1CCC2` (stereo unspecified), the inhibition in test [1] was -0.983%; in test [2], 8.49%; in test [3], 6.31%; in test [5], -9.41%; in test [7] (Hit Yes) it was 134%; in test [8], 7.65%.

As for `CN1CCCC(n2nc(Cc3ccc(Cl)cc3)c3ccccc3c2=O)CC1` (stereo unspecified), the inhibition in test [1] was 0.515%; in test [2], 14.5%; in test [3], -9.23%; in test [4], -8.14%; in test [5] it was -0.805%; in test [6], 1.52%. The inhibition in test [8] is -7.17%.

Consider `CCOc1ccc(Cc2nc3cc(C(=O)N(CC)CC)ccc3n2CC2CCCCC2)cc1`, for which the inhibition in test [1] was 4.01%; in test [2] it was 2.76%; in test [3] it was -2.6%; in test [4], -9.77%; in test [5] it was 9.81%; in test [6], 2.19%. In test [8], the inhibition came out at 2.91%.

Consider `Cc1cc(Cn2nnc3c(-c4ccco4)nc(N)nc32)ccc1N`, for which the inhibition in test [1] is 2.26%; in test [2] it was 17.6%; in test [3] it was -3.71%; in test [5], 0.253%; in test [6] it was -2.07%; in test [7] (Hit No), 4.16%. In test [8], the inhibition is -2.58%.

Consider `COc1ccccc1N1CCN(CCCCNC(=O)c2ccc3ccccc3c2)CC1`, for which the inhibition in test [1] is 11%; in test [2] it was 10.4%; in test [3], 14.3%; in test [4] it was -4.08%; in test [5] it was 9.63%; in test [7] (Hit No), 0.789%. In addition, in test [8], the inhibition was determined as 4.99%.

With `Cc1[nH]cnc1CN1CCc2c(c3ccccc3n2C)C1=O`, the inhibition in test [2] was 19%; in test [3], 3.5%; in test [4] it was -6.85%; in test [5], 1.31%; in test [6], 3.41%; in test [7] (Hit No) it was 11.9%. In test [8], the inhibition was 11.2%.

As to `CCOc1ccccc1C(=O)NCC1(N2CCN(CC)CC2)CCCCC1`, the inhibition in test [1] is 3.22%; in test [2], 5.23%; in test [3], -0.78%; in test [4] it was -8.16%; in test [6], -8.6%; in test [7] (Hit No) it was -3.81%. Besides, the inhibition in test [8] is -3.55%.

Regarding `C[C@H](NC(=O)CNC(=O)c1cccc(Cl)c1)c1ccccc1`, the inhibition is -8.97% in test [1]; 6.8% in test [2]; 13.7% in test [3]; -9.41% in test [5]; -8.91% in test [7] (Hit No); -1.54% in test [8].
